Measured values: ChEMBL document CHEMBL3045444, “Synthesis of Stereoisomers of Ipconazole and Their Fungicidal and Plant Growth Inhibitory Activities” (J Pestic Sci, 1997)
Values after ≈ are worked out from the molar mass of the structure shown.

What was measured:
[1] = system: Pyricularia oryzae; test: Antifungal activity against Magnaporthe oryzae after 3 days; type: functional, organism-based
[2] = system: Bipolaris oryzae; test: Antifungal activity against Bipolaris oryzae after 3 days; type: functional, organism-based
[3] = system: Fusarium fujikuroi; test: Antifungal activity against Fusarium fujikuroi after 3 days; type: functional, organism-based
[4] = system: Fusarium fujikuroi; test: Antifungal activity against Fusarium fujikuroi infected in rice plant assessed as control of bakanae disease at 75 ug/ml treated as seed treatment after 2 weeks; type: functional
[5] = system: Fusarium fujikuroi; test: Antifungal activity against Fusarium fujikuroi infected in rice plant assessed as control of bakanae disease at 300 ug/ml treated as seed treatment after 2 weeks; type: functional
[6] = system: Oryza sativa; test: Growth inhibition of Oryza sativa (rice) assessed as growth rate by measuring first sheath length at 250 ug/ml treated as seed treatment 24 hr before emergence measured after 10 days relative to control; type: organism-based; design: scale not given: the % may be the effect or the level left; details: in vivo, 240 h
[7] = system: Bipolaris oryzae; test: Antifungal activity against Bipolaris oryzae infected in fifth-leaf stage of rice plant assessed as control of brown spot disease at 9 ug/ml treated as foliar application after 6 days; type: functional
[8] = system: Bipolaris oryzae; test: Antifungal activity against Bipolaris oryzae infected in fifth-leaf stage of rice plant assessed as control of brown spot disease at 38 ug/ml treated as foliar application after 6 days; type: functional
[9] = system: Bipolaris oryzae; test: Antifungal activity against Bipolaris oryzae infected in fifth-leaf stage of rice plant assessed as control of brown spot disease at 150 ug/ml treated as foliar application after 6 days; type: functional
[10] = system: Fusarium fujikuroi; test: Antifungal activity against Fusarium fujikuroi infected in rice plant assessed as control of bakanae disease at 18 ug/ml treated as seed treatment after 2 weeks; type: functional
[11] = Pyricularia oryzae, 72 h, read-out: EC50
[12] = Bipolaris oryzae, 72 h, read-out: EC50
[13] = Fusarium fujikuroi, 72 h, read-out: EC50

Structure (SMILES)	EC50 [1, 11]	EC50 [2, 12]	EC50 [3, 13]	EC50 [1]	Activity [4]	Activity [5]	EC50 [2]	EC50 [3]	Activity [6]	Activity [7]	Activity [8]	Activity [9]	Activity [10]
CC(C)[C@@H]1CC[C@H](Cc2ccc(Cl)cc2)[C@@]1(O)Cn1cncn1	0.04 µg/mL (≈ 0.12 µM)	0.2 µg/mL (≈ 0.599 µM)	0.03 µg/mL (≈ 0.0899 µM)										
CC(C)[C@H]1CC[C@H](Cc2ccc(Cl)cc2)[C@@]1(O)Cn1cncn1		0.2 µg/mL (≈ 0.599 µM)	0.03 µg/mL (≈ 0.0899 µM)	0.01 µg/mL (≈ 0.03 µM)									
CC(C)[C@H]1CC[C@@H](Cc2ccc(Cl)cc2)[C@]1(O)Cn1cncn1	1 µg/mL (≈ 3 µM)	6 µg/mL (≈ 18 µM)	10 µg/mL (≈ 30 µM)										
CC(C)[C@@H]1CC[C@@H](Cc2ccc(Cl)cc2)[C@]1(O)Cn1cncn1	0.7 µg/mL (≈ 2.1 µM)	3 µg/mL (≈ 8.99 µM)	6 µg/mL (≈ 18 µM)										
CC(C)[C@@H]1CC[C@H](Cc2ccc(Cl)cc2)[C@@]1(O)Cn1cncn1 (racemic)				0.08 µg/mL (≈ 0.24 µM)	96.5%	98.7%	0.4 µg/mL (≈ 1.2 µM)	0.05 µg/mL (≈ 0.15 µM)	98.3%	86%	84%	100%	61.2%
CC(C)[C@H]1CC[C@H](Cc2ccc(Cl)cc2)[C@@]1(O)Cn1cncn1 (racemic)				0.03 µg/mL (≈ 0.0899 µM)	97.5%	99.6%	0.4 µg/mL (≈ 1.2 µM)	0.06 µg/mL (≈ 0.18 µM)	90.7%	71%	98%	100%	52.1%
CC(C)[C@@H]1CC[C@@H](Cc2ccc(Cl)cc2)[C@@]1(O)Cn1cncn1 (racemic)	0.5 µg/mL (≈ 1.5 µM)	1 µg/mL (≈ 3 µM)	0.9 µg/mL (≈ 2.7 µM)		59.1%	95.2%			91.7%	25%	49%	92%	0%
CC(C)[C@H]1CC[C@@H](Cc2ccc(Cl)cc2)[C@@]1(O)Cn1cncn1 (racemic)	0.04 µg/mL (≈ 0.12 µM)	0.5 µg/mL (≈ 1.5 µM)	0.09 µg/mL (≈ 0.27 µM)		76.8%	97.5%			82.5%	53%	74%	100%	9.7%
